The test system of assay [1] is hippocampal slices (Schaffer collateral synaptic potentials). The experiment in a line: Hippocampal slice electrophysiology of excitatory synaptic transmission (field EPSP, population spikes). Set-up: species or system Sprague-Dawley rats. As to the method:
Transverse sections of hippocampus were obtained from 4-6 week old Sprague-Dawley rats and maintained under standard conditions. […] Extracellular excitatory post synaptic potentials (EPSP's) were recorded by placing a saline-filled glass microelectrode in either the stratum radiatum or stratum lacunosum. Population spikes were recorded by placing an electrode in the stratum pyramidole.

Assay [2] has as its system 3H-glutamate release from rat brain synaptosomes. Kind of assay: Inhibition of K+-evoked 3H-glutamate release from synaptosomes (rapid superfusion). In kind it is cell-based. The procedure: To study the release of presynaptic ^3 H-glutamate, synaptosomes from young rats were used. CD Male rats of 4 to 6 weeks (50-75 g) were used for the preparation of synaptosomes. Rats were killed by decapitation with guillotine and the skull bone was opened in the center with the pointed blade of dissection scissors. The bone is then peeled away with a bone cutter and the brain is pried with a micro spatula. The cerebellum is removed and the rest of the brain is placed in 35 ml of 0.32M Sucrose solution and homogenized in a Thomas glass teflon homogenizer C at the maximum power setting (about 450 rpm) with 16 strokes. The pestle is rinsed with 5 ml of sucrose solution and added to the homogenate. The homogenate is centrifuged for 10 min at 3500 rpm (1500 g) in a SS-34 rotor in Sorvall RC-5B. The resulting pellet (P1) is discarded and the supernatant (S1) is recentrifuged for 20 min at 8700 rpm (8500 g). The supernatant (S2) is discarded and the pellet (P2) is resuspended in 5 ml of 0.32M sucrose and hand homogenized with 4 strokes (Thomas C) and the volume was made up to 8 ml. This homogenate was layered on 20 ml of 0.8M sucrose solution in two centrifuge tubes and spun for 25 minutes at 8700 rpm (8500 g). At the end of this spin, most of the myelin stays at the interphase of 0.32M and 0.8M sucrose and mitochondria pellet as a brown pellet. The synaptosomes are dispersed in the 0.8M sucrose. Using a 10 ml pipette, the 0.8M sucrose layer is collected (without disturbing the top myelin layer or the pellet) and diluted slowly with an equal volume of chilled basal buffer, while stirring gently with a Pasteur pipette. This diluted solution is centrifuged for 10 min at 10,000 rpm (12,000 g) and the pellet is resuspended in 1.5 ml of basal buffer and hand-homogenized in a Wheaton glass-glass 7 ml homogenizer with 8 strokes.
The synaptosomal homogenate is diluted 1 ml to 10 ml with basal buffer. This dilution gives a protein concentration of 500 to 600 μg/ml. One hundred μl of this diluted prep with 50-60 μg of protein is used for each superfusion event. […] The diluted synaptosomal solution was kept on ice until the end of the experiment.
^3 H-glutamate (purchased from NEN) is stored in the refrigerator. Pipette 6 μl ([…]; 40 to 55 Ci/mmol) into a disposable test tube. Add 100 μl of diluted prep and mix gently on vortex and incubate at 30° C. for 10 min. ^3 H-glutamate is taken up by sodium-coupledglutamate transporter present in synaptosomal membranes. After 10 min, dilute the incubation mixture with 690 μl of basal buffer. This solution is then transferred in Tygon tubing that is connected to the synaptosome loading chamber. Using a syringe filler with air, the solution is forced through the Millipore SC--GF/F--Millipore SC filter sandwich. These filters retain the synaptosomes and the solution flows through.
An important component of the superfusion setup is the custom made stainless steel "General Valve" three-valve solenoid operated superfusion chamber with an outlet for the effluent. The three inlets are connected to stainless steel buffer reservoirs that contain (1) wash buffer, (2) control buffer and (3) experimental buffer which are kept under 40 psi of nitrogen gas through teflon tubing connections. The superfusion is controlled through a menu-driven program on an Apple IIe computer. See Turner, J. T. et al., Anal. Biochem. 178:8-16 (1989), and U.S. Pat. No. 4,891,185, the disclosures of which are fully incorporated by reference herein.
The superfusion chamber has a teflon bushing and a stainless steel washer fixed with the flat surface facing the filters. A GF/B filter disc is placed first in the chamber to eliminate the switching related artifacts. The synaptosome loaded sandwich is then placed facing the synaptosomes into the flow followed by RA filter, stainless steel screen and a washer with the flat side facing the screen.

In assay [3] the test system is potassium-stimulated 45Ca uptake of synaptosomes. Kind of assay: Potassium-stimulated 45Ca uptake into synaptosomes. In kind it is cell-based, rat. The conditions noted are these: Rattus norvegicus; for inhibition at 10 µM: read-out: Inhibition of 45Ca Uptake, % Inhibition @ 10 uM (SEM). As to the method:
Several compounds were also tested to determine whether the Ca^2+ dependent and independent components of glutamate release are related to the blockage of ^45 Ca uptake. Calcium uptake is one step in the cascade of events which occur in neuronal cell death from ischemia. See Bassaclough and Leach, Current Patents Ltd., 2-27. The Ca-flux protocol is as follows. Rat brain synaptosomes were prepared according to Hajos, Brain Res. 93:485 (1975). Synaptosomes were suspended in low potassium "LK" buffer (containing 3 mM KCl) at 2 mg/ml. […] After 5 seconds, the ^45 Ca flux was stopped with 0.9 ml quench solution (LK+10 mM EGTA). The solution was filtered under vacuum and the filters washed with 15 ml of quench buffer. The effect of drug is expressed as % inhibition (or block) of control potassium-stimulated ^45 Ca influx. This method is an adaptation of the method disclosed by Nachsen and Blaustein, J. Physiol. 361:251-268 (1985).

Setting [4] is: Rattus norvegicus, read-out: Inhibition of Glutamate Release (Persistent Component), % Inhibition @ 10 uM.
The mark [5] stands for this setting: Rattus norvegicus, read-out: relative level of glutamate release.
Setting [6] is: read-out: Inhibition of 45Ca Uptake, IC50.

Where a name gives a salt, the structure may show the parent alone. Read-outs that look alike come from different tables or passages of the source. Bounds are passed on as bounds.

As for `Nc1ncnc2c1ncn2[C@@H]1O[C@H](CO)[C@@H](O)[C@H]1O` [adenosine, reference compound], in assay [1] (Rattus norvegicus, 1 mM, bath application, read-out: reduction of field EPSP amplitude), the inhibition at 1000 µM is 90%. In assay [1] (bath application), the “effect on field EPSP” value is recorded as “almost completely eliminated field EPSP's” and the “effect on population spikes” value was “totally blocked”. Also, in assay [1] (following washout), the reversibility of effect result is “fully reversible following washout”.
For `C1CCC(N=C(NNC(=NC2CCCCC2)NC2CCCCC2)NC2CCCCC2)CC1` [N,N',N",N"'-Tetracyclohexyl-Hydrazinedicarboximidamide], the inhibition at 10 µM in assay [2] (setting [4]) was 67%; in assay [3], 74%. In assay [2] (setting [5]), the activity at 30 µM is 51%. Further, the IC50 in assay [3] (FIG. 6 curve fits, read-out: IC50, inhibition of potassium-stimulated Ca uptake of synaptosomes (FIG. 6)) was 3.3 µM; in assay [3] (setting [6]), 3 µM.
Regarding `N=C(Nc1ccc2c3c(cccc13)CC2)NC1C2CC3CC(C2)CC1C3` (stereo not drawn) [N-(Adamantan-2-yl)-N'-(5-acenaphthyl)guanidine], the results for the inhibition at 10 µM in assay [2] (setting [4]) and in assay [3] were 63% and 69%, respectively. For the same compound, the concentration for half-maximal inhibition (IC50) stood at 5 µM in assay [2] (Rattus norvegicus; read-out: Inhibition of Glutamate Release (Persistent Component), IC50) and 4.8 µM in assay [3] (setting [6]).
As to `N=C(Nc1ccc(F)c2ccccc12)Nc1ccc2c3c(cccc13)CC2` [N-(3- and 5-Acenaphthyl)-N'-(4-Fluoronaphthyl)-Guanidine.HCl], the results for the inhibition at 10 µM in assay [2] (setting [4]) and in assay [3] were 85% and 47%, respectively. In addition, in assay [2] (Rattus norvegicus, read-out: Inhibition of Glutamate Release (Persistent Component), IC50), the IC50 is less than 5 µM.
In the case of `N=C(Nc1cccc2ccccc12)Nc1cccc2ccccc12` [N,N'-di-(1-naphthyl)guanidine], the inhibition at 10 µM in assay [2] (setting [4]) amounted to 31%. Also, in assay [2] (setting [5]), the activity at 30 µM turned out to be 19% and the activity at 100 µM amounted to 29%. In assay [3], the inhibition at 10 µM was found to be 27%. Also, the IC50 in assay [3] (setting [6]) stood at 23.6 ± 10 µM.

The record behind these values is patent publication US5686495A, “Substituted hydrazinedicarboximidamides and methods of use thereof” (Cambridge NeuroScience, Inc., priority 1995, dated 1997).
